Experimental data: US12172972B1, “3-(3-bromophenyl)-5-((2-isopropyl-5-methylphenoxy)methyl)-1,2,4-oxadiazole as an anti-cancer and antimicrobial compound” (KING FAISAL UNIVERSITY, priority 2023, dated 2024)

How the values were obtained:
Type in all cases: cell-based
[1] = system: human prostate cancer cells (PC3); experiment: cytotoxicity by SRB assay; details: 0.01 μM to 100 μM, 72 h
From the text: (§1) The anticancer activity of the described synthesized compounds against highly aggressive androgen-independent metastatic human prostate cancer cells (PC3) and osteosarcoma (MG-63) cells. The human prostate cancer cells (PC3) and human osteosarcoma cells (MG-63) were obtained from Nawah Scientific Inc. (Mokatam, Cairo, Egypt) and cultured in DMEM (Dulbecco's modified eagle's medium), Gibco, USA, supplemented with fetal bovine serum (FBS) at a concentration of 10% and 100 U/mL of penicillin and streptomycin (PS). The Cells were incubated at 37° C. in a humidified environment that contained 5% CO2.
(§2) Cells were seeded in 96-well plates as aliquots of 100 μL cell suspension and incubated in a complete media for 24 h, afterward, cells were treated with 3-(3-bromophenyl)-5-((2-isopropyl-5-methylphenoxy)methyl)-1,2,4-oxadiazole at diverse concentrations ranging from 0.01 μM to 100 μM for 72 h. Then, cells were fixed at 4° C. for one hour with 150 μL of 10% trichloroacetic acid (TCA). […] Then, 150 μL of Tris pH 10.5 (10 mM) was added, and the absorbance was measured at 540 nm using a BMG LABTECH®-FLUOstar Omega microplate reader (Ortenberg, Germany). Half maximal inhibitory concentrations (IC50) values were calculated for each experiment using GraphPad Prism 6 software. […]
(§3) The inhibition was calculated using the following equation: Inhibition %=100−Average Viability

[2] = system: human osteosarcoma cells (MG-63); experiment: cytotoxicity by SRB assay; details: MG-63 cells, 0.01 μM to 100 μM, 72 h
From the text: as §1, §2, §3

[3] = system: Pseudomonas aeruginosa; experiment: agar plate disc-diffusion, inhibition zone
Method: (§4) The agar plate disc-diffusion method was applied. […] The discs were then placed onto the surface of agar plates (nutrient agar for bacteria and Sabouraud's dextrose agar for fungi) seeded with the test organism. Each plate contained 15 mL of the agar medium, previously seeded with 0.2 mL of the broth culture of each organism pregrown for 18 hours. The plates were incubated at 37° C. for 48 h, and 72 h for fungi. The inhibition zones were measured in mm. Discs impregnated with DMSO were used as a control, and its inhibition zone was subtracted from the tested compound actual inhibition zone.

[4] = system: Staphylococcus aureus; experiment: agar plate disc-diffusion, inhibition zone
Method: as §4

[5] = system: Aspergillus flavus; experiment: agar plate disc-diffusion, inhibition zone
Method: as §4

[6] = system: Bacillus cereus; experiment: agar plate disc-diffusion, inhibition zone
Method: as §4

[7] = system: Chrysosporium keratinophilum; experiment: agar plate disc-diffusion, inhibition zone
Method: as §4

[8] = system: Escherichia coli; experiment: agar plate disc-diffusion, inhibition zone
Method: as §4

[9] = system: different microbes; experiment: antimicrobial activity, agar plate disc-diffusion (overall statement); details: against different microbes
Method: The agar plate disc-diffusion method was applied. Sterilized filter papers (6 mm in diameter) were wetted with 10 μL of a solution of 3-(3-bromophenyl)-5-((2-isopropyl-5-methylphenoxy)methyl)-1,2,4-oxadiazole (3) to be tested, containing 10 mg/mL in DMSO, and the discs were allowed to air dry. The discs were then placed onto the surface of agar plates (nutrient agar for bacteria and Sabouraud's dextrose agar for fungi) seeded with the test organism. Each plate contained 15 mL of the agar medium, previously seeded with 0.2 mL of the broth culture of each organism pregrown for 18 hours. The plates were incubated at 37° C. for 48 h, and 72 h for fungi. The inhibition zones were measured in mm. Discs impregnated with DMSO were used as a control, and its inhibition zone was subtracted from the tested compound actual inhibition zone.

[10] = A = concentration of comp. = 10,000 μL
[11] = C = concentration of comp. = 50,000 μL

| Structure (SMILES) | inhibition zone [3, 10] [mm] | inhibition zone ([3]; B =) [mm] | inhibition zone [3, 11] [mm] | inhibition zone [4, 10] [mm] | inhibition zone ([4]; B = concentration of comp.) [mm] | inhibition zone [4, 11] [mm] | inhibition zone [5, 10] [mm] | inhibition zone ([5]; B =) [mm] | inhibition zone [5, 11] [mm] | inhibition zone [6, 10] [mm] | inhibition zone ([6]; B =) [mm] | inhibition zone [6, 11] [mm] | inhibition zone [7, 10] [mm] | inhibition zone ([7]; B = concentration of comp.) [mm] | inhibition zone [7, 11] [mm] | inhibition zone [8, 10] [mm] | inhibition zone ([8]; B =) [mm] | inhibition zone [8, 11] [mm] | further results |
| --- | --- | --- | --- | --- | --- | --- | --- | --- | --- | --- | --- | --- | --- | --- | --- | --- | --- | --- | --- |
| Cc1ccc(C(C)C)c(OCc2nc(-c3cccc(Br)c3)no2)c1 [3-(3-bromophenyl)-5-((2-isopropyl-5-methylphenoxy)methyl)-1,2,4-oxadiazole] |  |  |  |  |  |  |  |  |  |  |  |  |  |  |  |  |  |  | antiproliferative activities [1]: excellent antiproliferative activities; antiproliferative activities [2]: excellent antiproliferative activities |
| O=C(O)c1cn(C2CC2)c2cc(N3CCNCC3)c(F)cc2c1=O [Cip., ciprofloxacin, reference compound] | 29 | 30 | 53 | 43 | 44 | 53 | 29 | 30 | 42 | 29 | 30 | 42 | 29 | 30 | 53 | 30 | 39 | 60 |  |
| Cc1ccc(C(C)C)c(OCc2nc(-c3cccc(Br)c3)no2)c1 [Compound 3, 3-(3-bromophenyl)-5-((2-isopropyl-5-methylphenoxy)methyl)-1,2,4-oxadiazole] | 26 | 28 | 40 | 12 | 16 | 19 | 20 | 24 | 32 | 27 | 29 | 40 | 25 | 28 | 47 | 28 | 36 | 52 | antimicrobial activities [9]: excellent antimicrobial activities |
